Measured values as given in US11337424B2, “Fungicidal compounds and mixtures for fungal control in cereals” (Corteva Agriscience LLC, priority 2016, dated 2022).

Tests used:
Format in all cases: in vivo
[1] = system: Puccinia recondita (PUCCRT); test: Field assessment of brown rust of wheat (PUCCRT), 2 field trials, relative AUDPC; conditions: % control based on AUDPC, average of 2 trials
Description: (§1) Treatments consisted of the compound of Formula I and fenpicoxamid either using individually or as a two-way mixture with the compound of Formula I. The compound of Formula I was applied with Agnique BP-420 (50% w/w at 0.3% v/v) at 75 and 150 g ai/ha and fenpicoxamid was applied with Agnique BP-420 (50% w/w at 0.3% v/v) at 75 and 100 g ai/ha. Commercial standards used in the studies were Fluxapyroxad (Imtrex), applied at 100 g ai/ha, and Metconazole+Fluxapyroxad (Librax), applied at 161 g ai/ha.
Field Assessment of Puccinia recondita (PUCCRT) in Wheat:
Fungicidal treatment containing the compound of Formula I and fenpicoxamid, either individually or as a two mixture, were assessed against brown rust of wheat (PUCCRT) in two separate field trials. In the first trial, fungicidal treatments were applied at B37-39 (protectant, approximately 0% infection at application) growth stage of wheat (TRZAW, MV Vanek variety) under natural infection of brown rust. The treatment was part of an experimental trial designed as a randomized complete block with four replications and a plot of approximately 2×3 m. Fungicidal treatments were applied at a water volume of 200 L/ha, using a backpack plot sprayer with a TEEJET QJ90-2XTT110 015 Nozzle.
In the second trial, fungicidal treatments containing the compound of Formula I and fenpicoxamid, either individually or as a two way mixture, were applied at B33 (curative, approximately 6.6% infection at application) growth stage of wheat (TRZAW, Miradoux variety) under natural infection of brown rust. The treatments were part of an experimental trial designed as a randomized complete block with four replications and a plot of approximately 2×3 m. Fungicidal treatments were applied at a water volume of 200 L/ha, using a backpack plot sprayer with a HARDI MD110-02 Nozzle.
(§2) Disease severity (percentage of visual diseased foliage on whole plot or leaves) in both field trials was assessed at 5 weeks after application and was recorded following EPPO PP1/26 guideline prescriptions. Area under the disease progress curve (AUDPC) was calculated for each plot in both trials using the sets of recorded severity data. Relative AUDPC (% control based on AUDPC) was calculated as percent of the nontreated control. Final results for the control of brown rust of wheat by the compound of Formula I, fenpicoxamid, and mixtures are reported as an average of the relative AUDPC calculated over both field trials. Statistical analysis was done according to ANOVA and Tukey's test (p=0.10).

[2] = system: Puccinia striiformis (PUCCST); test: Field assessment of yellow rust of wheat (PUCCST), 2 field trials, relative AUDPC; conditions: % control based on AUDPC, average of 2 trials
Description: as §1
Field Assessment of Puccinia striiformis (PUCCST) in Wheat:
Fungicidal treatments containing the compound of Formula I and fenpicoxamid, either individually or as a two way mixture, were assessed against yellow rust of wheat (PUCCST) in two separate field trials. In the first trial, fungicidal treatments were applied twice at B31-32 (early curative, 4% infection at application on L3) and B39 (16.3% infection at application on L3) growth stages of winter wheat (TRZAW, Fairplay variety) under naturally occurring infection with PUCCST. The treatments were part of an experimental trial designed as a randomized complete block with four replications and a plot of approximately 1×6 m. Treatments were applied at water volume of 200 L/ha, using a backpack plot sprayer (BKPCKENG, F110-015 Hardi (3) Flat fan nozzle) and pressurized at 200 kPa.
In the second trial, fungicidal treatments containing the compound of Formula I and fenpicoxamid, either individually or as a two way mixture, were applied twice at B32 (protectant, 0% infection on L3 at application) and B37 (early curative, 20% infection on L3 at application) growth stages of wheat (TRZAW, Torch variety) under naturally occurring infection with PUCCST. The treatment was part of an experimental trial designed as a randomized complete block with four replications and a plot of approximately 2×4 m. Treatments were applied at water volume of 200 L/ha, using a backpack precision plot sprayer (BKCKAIR, F110-03 Hypro (4) Flat fan nozzle) and pressurized at 210 kPa.
as §2, with “4-7” for “5”, “yellow” for “brown”

[3] = system: Zymoseptoria tritici (SEPTTR); test: Field assessment of leaf blotch of wheat (SEPTTR), 3 field trials, relative AUDPC; conditions: % control based on AUDPC, average of 3 trials
Description: as §1
Field Assessment of Zymoseptoria Tritici (SEPTTR) in Wheat:
Fungicidal treatments containing the compound of Formula I and fenpicoxamid, either individually or as a two way mixture, were assessed against leaf spot of wheat (SEPTTR) in three separate field trials. In the first trial, fungicidal treatments were applied at B37 (curative, 1.8% infection at application on L4) growth stage of winter wheat (TRZAW, Sy moisson variety) under naturally occurring infection with SEPTTR. The treatments were part of an experimental trial designed as a randomized complete block with four replications and a plot of approximately 2×4 m. Treatments were applied at water volume of 200 L/ha, using a backpack plot sprayer (BKPCKAIR, FLAT FAN nozzle) and pressurized at 250 kPa.
In the second trial, fungicidal treatments were applied twice at B32 (curative, 15% infection at application on L5) and B39 (16% infection at application on L4) growth stages of winter wheat (TRZAW, Riband variety) under naturally occurring infection with SEPTTR. The treatments were part of an experimental trial designed as a randomized complete block with four replications and a plot of approximately 1.5×2 m. Treatments were applied at water volume of 200 L/ha, using a backpack plot sprayer (BKPCKAIR, Flat fan nozzle) and pressurized at 180 kPa.
In the final trial, fungicidal treatments were applied twice at B32 (protective, 15% infection at application on L6) and B37 (12% infection at application on L5) growth stages of winter wheat (TRZAW, Smaragd variety) under naturally occurring infection with SEPTTR. […]
as §2, with “at 7-9” for “at 5”, “of leaf spot” for “of brown rust”, “over all three” for “over both”, “trials. […]” for “trials. Statistical analysis was done according to ANOVA and Tukey's test (p=0.10).”

Row | Structure (SMILES) | PUCCRT % Control ([1]; 75 g ai/ha) [%] | PUCCRT % Control ([1]; 150 g ai/ha) [%] | PUCCST % Control ([2]; 75 g ai/ha) [%] | PUCCST % Control ([2]; 150 g ai/ha) [%] | SEPTTR % Control ([3]; 75 g ai/ha) [%] | SEPTTR % Control ([3]; 150 g ai/ha) [%] | PUCCRT % Control ([1]; 100 g ai/ha) [%] | PUCCST % Control ([2]; 100 g ai/ha) [%] | SEPTTR % Control ([3]; 50 g ai/ha) [%]
1 | N#Cc1ccc(Oc2ccc(C(F)(F)C(O)(Cn3nc[nH]c3=S)c3ccc(F)cc3F)nc2)cc1 (stereo not drawn) [Compound I, 4-((6-(2-(2,4-difluorophenyl)-1,1-difluoro-2-hydroxy-3-(5-thioxo-4,5-dihydro-1H-1,2,4-triazol-1-yl)propyl)pyridin-3-yl)oxy)benzonitrile] | 79.7 | 89.0 | 82.7 | 85.5 | 48.2 | 65.8 |  |  | 
2 | COc1ccnc(C(=O)N[C@H]2COC(=O)[C@H](Cc3ccccc3)[C@@H](OC(=O)C(C)C)[C@H](C)OC2=O)c1OCOC(=O)C(C)C [Fenpicoxamid, (3S,6S,7R,8R)-8-benzyl-3-(3-((isobutyryloxy)methoxy)-4-methoxypicolinamido)-6-methyl-4,9-dioxo-1,5-dioxonan-7-yl isobutyrate] | 63.5 |  | 56.5 |  | 57.7 |  | 74.5 | 60.5 | 48.7
